Reference: article PMC4129439 (eLife, 2014)
Residue numbers refer to the chain shown, from its start. Where “and” joins values, the source holds several entries; their conditions need not be identical. Identical values can stand only once. Like-named read-outs stand apart in the source and are kept apart here. Each block holds one molecule with its values, some of them ahead of it.

Key:
hSAA1, mSAA1, and mSAA3 = assay: Cholesterol competition of retinol binding to SAAs; conditions: 10 μM cholesterol, saturating retinol, fluorescence quenching at 334 nm
Excerpt: Figure 2. […] Plots are representative of five independent experiments. (C) Retinoic acid lacks intrinsic fluorescence, but can quench intrinsic protein fluorescence due to energy transfer from tryptophan residues ([Cogan et al., 1976]). All-trans-retinoic acid was titrated into mSAA3 and fluorescence quenching was monitored following excitation at 296 nm. The chemical structure of retinoic acid is shown. (D) All-trans-retinoic acid was titrated into hSAA1, mSAA1, mSAA3, hTfr, and ApoA1. Fluorescence emission was monitored at 334 nm with excitation at 296 nm as in (C). Plots are representative of three independent experiments. […] Additional ligand binding measurements are provided in Figure 2—figure supplements 1 and 2. DOI: http://dx.doi.org/10.7554/eLife.03206.007 Figure 2—figure supplement 1. […] DOI: http://dx.doi.org/10.7554/eLife.03206.008 [drawing 3] Figure 2—figure supplement 2. Additional ligand binding studies on human and mouse SAAs. […] Plots are representative of three independent experiments.
Steady state fluorescence was measured using a QuantaMaster 40 spectrofluorometer (Photon Technology International, Edison, NJ) and FelixGX software program. […] For retinoic acid and other retinoids, samples were excited at 296 nm and tryptophan quenching was monitored by emission at 334 nm. […]

[1] = tested on: liver Saa1 and Saa2 expression; assay: In vivo retinoic acid reconstitution, liver Saa expression by Q-PCR; parameters: species or system mouse; conditions: vitamin A-depleted mice, intraperitoneal, daily for three days
Excerpt: (§1) Figure 1. SAA expression requires dietary vitamin A. (A) Mice were maintained on a normal (Vit. A+) diet or a vitamin A-deficient (Vit. A−) diet as in Figure 1—figure supplement 1. N = 3–5 mice per condition. (B) Ileal sections were stained with anti-SAA antibody (‘Materials and methods’) and anti-rabbit IgG-Cy3 (red), and counterstained with DAPI (blue). Scale bar = 50 µm. (C) Q-PCR determination of Saa expression levels in livers of mice on a normal or vitamin A-deficient diet. N = 5 mice/condition. (D) Liver sections were stained with anti-SAA antibody and anti-rabbit IgG-Cy3 (red), and counterstained with DAPI (blue). Scale bars = 50 µm. (E and F) Analysis of SAA expression in HepG2 cells. […] SAA expression was determined by Q-PCR. N = 3 independent experiments. Mean ± SEM is plotted. nd, not detected. *p < 0.05; **p < 0.01; ***p < 0.001. p values were determined by two-tailed Student's t test. DOI: http://dx.doi.org/10.7554/eLife.03206.004 Figure 1—figure supplement 1. […] Saa transcript abundance was determined by Q-PCR. […] Saa transcript abundance was determined by Q-PCR. […] Mean ± SEM is plotted. *p < 0.05, **p < 0.01. p values were determined by the Mann–Whitney test in (A) and two-tailed Student's t test in (B). […]

[2] = biological target: T1, recombinant human SAA1 (hSAA1) (Homo sapiens, UniProt P0DJI8, D78N/H89R); assay: Fluorometric retinoid binding assay, hSAA1; conditions: for Kd: PBS, 0.5 μM protein
T1 construct: corresponding to human apo-SAA1α except for the presence of an N-terminal methionine; purchased PeproTech (Rocky Hill, NJ)
T1 sequence (P0DJI8 19-122 D78N/H89R): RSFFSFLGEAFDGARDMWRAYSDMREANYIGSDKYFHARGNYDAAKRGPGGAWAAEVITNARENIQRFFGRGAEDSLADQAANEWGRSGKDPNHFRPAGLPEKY
Description: (§2) Retinoic acid lacks intrinsic fluorescence but can quench inherent protein fluorescence due to energy transfer from tryptophan residues ([Cogan et al., 1976]). We therefore measured retinoic acid binding using a modified fluorescence assay that monitored quenching of protein fluorescence (Figure 2C).
(§3) Steady state fluorescence was measured using a QuantaMaster 40 spectrofluorometer (Photon Technology International, Edison, NJ) and FelixGX software program. […] For retinoic acid and other retinoids, samples were excited at 296 nm and tryptophan quenching was monitored by emission at 334 nm. Experiments on mSAA1 and mSAA3 were done in 25 mM Tris pH 8.0, 100 mM NaCl, and 4 mM decyl maltopyranoside (DM). Experiments with hSAA1, human ApoA1, and human transferrin were conducted in PBS. […] All assays were done using a protein concentration of 0.5 μM.

mouse SAA1 (mSAA1) = biological target: T2, mouse SAA1 (mSAA1) (Mus musculus, UniProt P05366); assay: Fluorometric retinoid binding assay, mSAA1; conditions: for binding (in words): tryptophan fluorescence quenching, excitation 296 nm, emission 334 nm
T2 construct: hexa-histidine tag followed by thrombin cleavage site (N, cleaved yes); made in house; host or cells: Escherichia coli BL21-CodonPlus (DE3)-RILP
T2 sequence (P05366 20-122): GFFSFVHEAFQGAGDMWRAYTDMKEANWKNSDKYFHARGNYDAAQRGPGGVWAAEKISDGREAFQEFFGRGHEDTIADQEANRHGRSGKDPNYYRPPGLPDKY
Description: as §2, §3

[3] = biological target: human retinol binding protein 4 (hRBP4) (Homo sapiens, UniProt P02753); assay: Fluorescence binding assay, hRBP4; conditions: fluorescence quenching assay as in Figure 2
[4] = tested on: SAA1 and 2 expression in HepG2 cells; assay: SAA expression in HepG2 cells by Q-PCR; assay type: cell-based, human
Excerpt: as §1

mouse SAA3 (mSAA3) = biological target: T3, mouse SAA3 (mSAA3) (Mus musculus, UniProt P04918); assay: Fluorometric retinoid binding assay, mSAA3
T3 construct: hexa-histidine tag followed by thrombin cleavage site (N, cleaved yes); made in house; host or cells: Escherichia coli BL21-CodonPlus (DE3)-RILP
T3 sequence (P04918 19-122): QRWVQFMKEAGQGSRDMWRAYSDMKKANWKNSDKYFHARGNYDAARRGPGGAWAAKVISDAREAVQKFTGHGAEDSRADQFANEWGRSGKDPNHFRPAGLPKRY
Description: as §2, §3

[5] = tested on: intestinal Saa1 and Saa2 expression; assay: Saa expression in small intestinal explants by Q-PCR; assay type: cell-based, mouse; conditions: 1 µM retinol in 0.1% DMSO, ileum explants, 6 hr
mSAA3-W71A = biological target: T4, mSAA3-W71A (Mus musculus, UniProt P04918, W71A); assay: Retinol binding assay, mSAA3-W71A mutant
T4 construct: hexa-histidine tag followed by thrombin cleavage site (N, cleaved yes); made in house; host or cells: Escherichia coli BL21-CodonPlus (DE3)-RILP
T4 sequence (P04918 19-122 W71A): T3 sequence (P04918 19-122) with W53A
Description: The mSAA3-W71A mutant was generated using the QuickChange II site-directed mutagenesis kit (Agilent Technologies, Santa Clara, CA).
as §3

[6] = biological target: the molecule itself; assay: crystal structure; selenomethionyl mSAA3, space group P6(2), two subunits in the asymmetric unit, SAD phasing, 2 Å; 75-80% MPD, 0.1 M sodium acetate pH 4.5, 20°C; quaternary structure by PDBePISA
[7] = tryptophan fluorescence quenching, excitation 296 nm, emission 334 nm
[8] = tryptophan fluorescence quenching, excitation 296 nm, emission 334 nm, 0.5 μM protein

Molecule: CC(C)CCC[C@@H](C)[C@H]1CC[C@H]2[C@@H]3CC=C4C[C@@H](O)CC[C@]4(C)[C@H]3CC[C@]12C [cholesterol]
competitive inhibition of retinol binding (hSAA1, mSAA1, and mSAA3): unable to competitively inhibit retinol binding

Molecule: CCCCCCCCCCCCCCCC(=O)OC/C=C(C)/C=C/C=C(C)/C=C/C1=C(C)CCCC1(C)C [retinyl palmitate]
binding (in words) [2, 7]: bound weakly | binding (in words) (mouse SAA1 (mSAA1)): bound weakly | binding (in words) (mouse SAA3 (mSAA3); [7]): bound weakly

Molecule: CC1=C(/C=C/C(C)=C/C=C/C(C)=C/C=C/C=C(C)/C=C/C=C(C)/C=C/C2=C(C)CCCC2(C)C)C(C)(C)CCC1 [β-carotene]
Kd [2, 7]: 347 nM and 497 nM | binding (in words) (mouse SAA1 (mSAA1)): weak binding | Kd (mouse SAA3 (mSAA3); [8]): 159 nM

B1: mouse serum amyloid A3 (mSAA3) (natural protein, UniProt P04918 19-122, looked up)
chain: T3 sequence (P04918 19-122)
notes: cloned into pET28(a)+ between NdeI and BamHI; monomer is 12.2 kDa; The crystal used for the structure was selenomethionyl-derivatised (grown in defined media with selenomethionine); SEC and cross-linking used the native protein; A few vector residues probably remain at the N-terminus after thrombin cleavage (surmise); also called mouse SAA3; not shown: His6, N-terminal, cleaved
stoichiometry N [6]: 4

Second part, led by results:

Kd [2, 7]: 268 nM | binding (in words) (mouse SAA1 (mSAA1)): weak binding | Kd [3]: 139 ± 40 nM | Kd (mouse SAA3 (mSAA3); [8]): 224 nM
Molecule: CC1=C(/C=C/C(C)=C/C=C/C(C)=C/C(=O)O)C(C)(C)CCC1 [retinoic acid]
expression of liver Saa1 and Saa2 [1]: elevated expression | expression of SAA1 and 2 ([4]; 100 nM retinoic acid in the presence of IL-1β and IL-6, retinoid-free medium): enhanced expression

Kd ([2]; all-trans-retinol titration, retinol fluorescence, excitation 348 nm, emission 460 nm): 259 nM | Kd (mouse SAA1 (mSAA1)): 169 nM | Kd (mouse SAA3 (mSAA3)): 145 nM | Kd (mSAA3-W71A): 496 ± 127 nM
Molecule: CC1=C(/C=C/C(C)=C/C=C/C(C)=C/CO)C(C)(C)CCC1 [retinol]
expression of intestinal Saa1 and Saa2 [5]: elevated expression | expression of SAA1 and 2 ([4]; 1 μM retinol in the presence of IL-1β and IL-6, retinoid-free medium): enhanced expression

Kd [2, 7]: 497 nM and 347 nM | binding (in words) (mouse SAA1 (mSAA1)): weak binding
Molecule: CC(=O)OC/C=C(C)/C=C/C=C(C)/C=C/C1=C(C)CCCC1(C)C [retinyl acetate]
